Measured values from patent publication US20240382629A1, “HETEROBIVALENT AND HOMOBIVALENT AGENTS TARGETING FIBROBLAST ACTIVATION PROTEIN ALPHA AND/OR PROSTATE-SPECIFIC MEMBRANE ANTIGEN” (The Johns Hopkins University, priority 2021, published 2024).
Values joined by “and” are separate entries in the source; they are usually repeats but may differ in a detail not shown here. Equal entries are not always repeated.

Experiment: Biodistribution of representative compounds ([^18F]Sri-07-56, [^18F]Sri-07-52, [^18F]JHU1221823, [^18F]FAPI-74), tissue % ID/g with carrier or blocker
Type: in vivo, mouse
Conditions: 20 μCi per mouse; for Bladder % ID/g / Blood % ID/g / Brain % ID/g / Fat % ID/g / Femur % ID/g / Heart % ID/g / Kidney % ID/g / Large intestine % ID/g / Liver % ID/g / Lung % ID/g / Muscle % ID/g / Pancreas % ID/g / Salivery gland % ID/g / Small intestine % ID/g / Spleen % ID/g / Stomach % ID/g / Tumor % ID/g: individual mice
Description: Biodistribution of Representative Compounds

For `N#C[C@@H]1CCCN1C(=O)CNC(=O)c1ccnc2ccc(OCCCNC(=O)CCOCCOCCOCCOCCNC(=O)[C@H](CCCCNC(=O)c3ccc([18F])nc3)NC(=O)CN3CCN(CC(=O)O)CCN(CC(=O)O)CCN(CC(=O)O)CC3)cc12` [[^18F]JHU1221823], the “Bladder % ID/g Mean” value (60 min) was 4.53 % ID/g, the “Blood % ID/g Mean” value (60 min) was 9.54 % ID/g and the “Brain % ID/g Mean” value (60 min) was 0.22 % ID/g. The “Fat % ID/g Mean” value (60 min) was 1.07 % ID/g, the “Femur % ID/g Mean” value (60 min) was 2.83 % ID/g and the “Heart % ID/g Mean” value (60 min) was 4.65 % ID/g. The “Kidney % ID/g Mean” value (60 min) was 2.73 % ID/g, the “Large intestine % ID/g Mean” value (60 min) was 1.49 % ID/g and the “Liver % ID/g Mean” value (60 min) was 2.99 % ID/g. For the same compound, the “Lung % ID/g Mean” value (60 min) was 5.72 % ID/g, the “Muscle % ID/g Mean” value (60 min) was 1.78 % ID/g and the “Pancreas % ID/g Mean” value (60 min) was 2.14 % ID/g. The “Salivary gland % ID/g Mean” value (60 min) was 6.93 % ID/g, the “Small intestine % ID/g Mean” value (60 min) was 3.02 % ID/g and the “Spleen % ID/g Mean” value (60 min) was 2.15 % ID/g. For the same compound, the “Stomach % ID/g Mean” value (60 min) was 1.14 % ID/g, the “Tumor % ID/g Mean” value (60 min) was 5.71 % ID/g and the “Bladder % ID/g” value (60 min) was 6.41 % ID/g and 2.64 % ID/g. The “Blood % ID/g” value (60 min) was 9.28 % ID/g and 9.80 % ID/g, the “Brain % ID/g” value (60 min) was 0.23 % ID/g and 0.22 % ID/g and the “Fat % ID/g” value (60 min) was 0.47 % ID/g and 1.68 % ID/g. For the same compound, the “Femur % ID/g” value (60 min) was 2.55 % ID/g and 3.11 % ID/g, the “Heart % ID/g” value (60 min) was 4.31 % ID/g and 4.98 % ID/g and the “Kidney % ID/g” value (60 min) was 2.70 % ID/g and 2.77 % ID/g. For the same compound, the “Large intestine % ID/g” value (60 min) was 1.29 % ID/g and 1.69 % ID/g, the “Liver % ID/g” value (60 min) was 2.68 % ID/g and 3.29 % ID/g and the “Lung % ID/g” value (60 min) was 5.53 % ID/g and 5.91 % ID/g. For the same compound, the “Muscle % ID/g” value (60 min) was 1.79 % ID/g and 1.78 % ID/g, the “Pancreas % ID/g” value (60 min) was 1.62 % ID/g and 2.66 % ID/g and the “Salivery gland % ID/g” value (60 min) was 7.44 % ID/g and 6.43 % ID/g. For the same compound, the “Small intestine % ID/g” value (60 min) was 2.59 % ID/g and 3.46 % ID/g, the “Spleen % ID/g” value (60 min) was 1.86 % ID/g and 2.43 % ID/g and the “Stomach % ID/g” value (60 min) was 0.84 % ID/g and 1.45 % ID/g. For the same compound, the “Tumor % ID/g” value (60 min) was 4.35 % ID/g and 7.05 % ID/g, the “Bladder % ID/g Mean” value (120 min) was 1.92 % ID/g and the “Blood % ID/g Mean” value (120 min) was 6.28 % ID/g. For the same compound, the “Brain % ID/g Mean” value (120 min) was 0.18 % ID/g, the “Fat % ID/g Mean” value (120 min) was 1.45 % ID/g and the “Femur % ID/g Mean” value (120 min) was 1.61 % ID/g. For the same compound, the “Heart % ID/g Mean” value (120 min) was 3.49 % ID/g, the “Kidney % ID/g Mean” value (120 min) was 1.93 % ID/g and the “Large intestine % ID/g Mean” value (120 min) was 1.38 % ID/g. For the same compound, the “Liver % ID/g Mean” value (120 min) was 2.18 % ID/g, the “Lung % ID/g Mean” value (120 min) was 3.65 % ID/g and the “Muscle % ID/g Mean” value (120 min) was 1.16 % ID/g. For the same compound, the “Pancreas % ID/g Mean” value (120 min) was 4.67 % ID/g, the “Salivary gland % ID/g Mean” value (120 min) was 8.11 % ID/g and the “Small intestine % ID/g Mean” value (120 min) was 2.04 % ID/g. For the same compound, the “Spleen % ID/g Mean” value (120 min) was 1.58 % ID/g, the “Stomach % ID/g Mean” value (120 min) was 1.24 % ID/g and the “Tumor % ID/g Mean” value (120 min) was 2.91 % ID/g. The “Bladder % ID/g” value (120 min) was 2.63 % ID/g and 1.21 % ID/g, the “Blood % ID/g” value (120 min) was 5.77 % ID/g and 6.78 % ID/g and the “Brain % ID/g” value (120 min) was 0.19 % ID/g and 0.17 % ID/g. The “Fat % ID/g” value (120 min) was 0.97 % ID/g and 1.93 % ID/g, the “Femur % ID/g” value (120 min) was 1.71 % ID/g and 1.91 % ID/g and the “Heart % ID/g” value (120 min) was 3.18 % ID/g and 3.79 % ID/g. For the same compound, the “Kidney % ID/g” value (120 min) was 1.61 % ID/g and 2.24 % ID/g, the “Large intestine % ID/g” value (120 min) was 1.40 % ID/g and 1.36 % ID/g and the “Liver % ID/g” value (120 min) was 1.94 % ID/g and 2.42 % ID/g. The “Lung % ID/g” value (120 min) was 3.13 % ID/g and 4.16 % ID/g, the “Muscle % ID/g” value (120 min) was 1.18 % ID/g and 1.15 % ID/g and the “Pancreas % ID/g” value (120 min) was 4.03 % ID/g and 5.32 % ID/g. The “Salivery gland % ID/g” value (120 min) was 5.17 % ID/g and 11.05 % ID/g, the “Small intestine % ID/g” value (120 min) was 1.88 % ID/g and 2.21 % ID/g and the “Spleen % ID/g” value (120 min) was 1.49 % ID/g and 1.67 % ID/g. For the same compound, the “Stomach % ID/g” value (120 min) was 1.11 % ID/g and 1.37 % ID/g and the “Tumor % ID/g” value (120 min) was 2.88 % ID/g and 2.94 % ID/g.
